Experimental data published in patent US20250320462A1, “METHODS AND APPARATUSES FOR TESTING HEPATOCYTE TOXICITY USING MICROORGANOSPHERES” (XILIS, INC., priority 2022, published 2025).
Read-outs that look alike come from different tables or passages of the source.

Legend:
HepatoMOS (PHHs) = experiment: HepatoMOS-based DILI assay (CTG viability, live/dead staining); format: cell-based, human; settings: for IC50: Homo sapiens; for sensitivity of HepatoMOS-based versus spheroid-based DILI assay: indicated by lower IC50 values and large safety margins
Description: Frozen human hepatocytes from Lonza were plated at 30,000 cells per well and allowed to establish in plating media. On day 2 plating media was removed and replaced with maintenance media and cultured for 1 day. On the third day, media was replaced with treatment media and the cells were treated for 72 hours. Prior to harvest HepatoMOSs were treated with CTG reagent to monitor viability.
100 cells/droplet was used in this experiment, the cell viabilities were determined by Celltiter Glo 3D.
(§1) Cell viability assay: The cell viabilities of PHHs in 2D monolayer culture or HepatoMOS culture were measured by CellTiter-Glo® 3D Cell Viability Assay (Promega). For the HepatoMOS viability measurement, we also applied the combination of Calcein AM and EtH staining in addition to CTG assay as previously reported.
(§2) DILI assessment in 2D PHHs and HepatoMOS: For the DILI assessment in the 2D monolayer of PHH cultures, PHHs were seeded at the cell density of 20,000 live cells/well in the collagen-coated 96-well plates. After 24h of culturing, the PHHs were exposed to DILI compounds at different concentrations. The cell viabilities of PHHs were then measured by using CTG assay and the DILI effects were assessed by the changes of CTG reading. For the DILI assessment in HepatoMOS culture, the HepatoMOS were encapsulated at 100 cells/droplet and cultured at HCM or InSphero media for 4 days. Then the HepatoMOS were dispensed into 96 well plates and followed by the drug treatment.

[1] = system: 2D monolayer of PHH cultures; experiment: 2D-based DILI assay; format: cell-based, human
Description: as §1, §2

spheroid PHHs = experiment: Spheroid-based DILI assay; format: cell-based, human
Description: Culture of PHHs and HepatoMOS generation: The pooled donors and the individual donor of PHHs were purchased from BioIVT (www.bioivt.com). The PHHs used to compare the DILI predictivities of the spheroid method vs. HepatoMOS methods were accompanied with the InSphero Kit. Four different serum-free media options (InSphero, HCM™ Hepatocyte Culture Medium BulletKit™, BioIVT INVITROGRO HI Medium, and William E) were selected for the initial HepatoMOS culture in this study. PHHs were cultured either as a 2D monolayer on collagen-coated 96-well plates or encapsulated in MOS to create HepatoMOS at different cell densities. For the comparison of HepatoMOS with the dome culture methods, matched cell densities used for the dome and making HepatoMOS were used.
Given the high fidelity of cell viability, maintenance, and hepatic-specific function preservation in HepatoMOS culture, the potential application in predicting DILI effects during drug development was evaluated. The sensitivities and specificities of HepatoMOS were compared with two widely used approaches for DILI detection: i) 2D culture; and ii) spheroid PHHs.

[2] = combined with immunotherapies; cited from earlier work
3D Hepatocyte Spheroid = settings: values above 199 show no toxicity; read-out: 3D Hepatocyte Spheroid pIC50 (converted); cited from earlier work
HepG2 = settings: values above 199 show no toxicity; read-out: Typical 2D HepG2 Monolayer Cell Health IC50; cited from earlier work
tumor MOSs = experiment: Drug screen on MOSs generated from a patient tumor biopsy; format: cell-based
Description: (§3) In a similar set of experiments, MOSs were generated from biopsy material (FIG. 23A), and a drug effect screen was performed using the resulting MOSs. […] Thus, the MOSs correlated strongly with patient response to the standard of care drugs. In this case, the patient endured six months of side effects and toxicities that may have been avoided by the predicted response from the MOSs, indicating (within 7-10 days from the biopsy) that the tumor would not respond to these drugs.
In this example, a drug screen using the Patient-Derived MOSs was run by dosing a plurality of replicates for each of a plurality of (27) drugs. A single tumor biopsy was used to generate a plurality of MOSs in large quantities extremely fast (e.g., within less than two weeks) and these MOSs were tested against the panel of drug formulations (e.g., 27 formulations are shown). This testing was done in parallel and could be automatically quantified (e.g., by optical detection and quantification).

tumor = experiment: Actual patient tumor response to treatment; settings: in vivo
Description: as §3

traditional cell line = experiment: Traditional cell line drug screen; format: cell-based; settings: all dose ranges examined
From the text: As mentioned above, the MOSs and methods of using them to screen for drug compositions may be used to accurately predict the response of a patient tumor to one or more drug therapies. […] For example, in FIG. 22A-22D, the MOSs, but not a cell line, was able to correlate with patient response.

mouse liver MOSs = experiment: Toxicity assay using mouse liver MOSs; format: cell-based; settings: 10 mM
human liver MOSs = experiment: Toxicity assay using human liver MOSs; format: cell-based; settings: 10 mM
From the text: Similarly, FIGS. 34A-34B also show toxicity assays using human liver MOSs.

C=CC(=O)N1CCN(c2nc(=O)n(-c3c(C)ccnc3C(C)C)c3nc(-c4c(O)cccc4F)c(F)cc23)[C@@H](C)C1 [AMG-510]
IC50 (HepatoMOS (PHHs); 10 donor batch): < 10 µM | IC50 (HepatoMOS (PHHs); single donor): < 3.7 µM | DILI concern in 2D-based DILI assay [1]: failed to capture any DILI concern | DILI concern in spheroid-based DILI assay (spheroid PHHs): failed to capture any DILI concern | liver side effects in Phase 1 clinical trial [2]: higher incidence of severe liver side effects

COc1ccccc1Oc1c(NS(=O)(=O)c2ccc(C(C)(C)C)cc2)nc(-c2ncccn2)nc1OCCO [Bosentan]
IC50 (3D Hepatocyte Spheroid): 166 µM | IC50 (HepG2): > 200 µM

O=C(O)Cc1ccccc1Nc1c(Cl)cccc1Cl [Diclofenac]
IC50 (3D Hepatocyte Spheroid): 66.1 µM | IC50 (HepG2): > 200 µM

O=c1[nH]c(=O)n([C@@H]2O[C@H](CO)[C@@H](O)[C@@H]2F)cc1I [Fialuridine]
IC50 (3D Hepatocyte Spheroid): 1.32 µM | IC50 (HepG2): > 200 µM

CCc1c2c(nc3ccc(OC(=O)N4CCC(N5CCCCC5)CC4)cc13)-c1cc3c(c(=O)n1C2)COC(=O)[C@]3(O)CC [Irinotecan]
cell survival of tumor MOSs (tumor MOSs): lack of effect | patient tumor response to treatment (tumor): no response

CS(=O)(=O)CCNCc1ccc(-c2ccc3ncnc(Nc4ccc(OCc5cccc(F)c5)c(Cl)c4)c3c2)o1 [Lapatinib]
IC50 (3D Hepatocyte Spheroid): 1.32 µM | IC50 (HepG2): > 200 µM

O=C1[O][Pt]2([NH][C@@H]3CCCC[C@H]3[NH]2)[O]C1=O [Oxaliplatin]
effect on traditional cell line (traditional cell line): no effect | cell survival of tumor MOSs (tumor MOSs; listed as Oxalipalatin): no change in the percent survival | cell survival of tumor MOSs (tumor MOSs; listed as Oxalipalitin): significant decreases in cell survival | patient tumor response to treatment (tumor; listed as Oxalipalatin): no response | patient tumor response to treatment (tumor; listed as Oxalipalitin): responded to treatment

Cc1ccc(C(=O)c2cc(O)c(O)c([N+](=O)[O-])c2)cc1 [Tolcapone]
sensitivity of HepatoMOS-based versus spheroid-based DILI assay (HepatoMOS (PHHs)): better sensitivities | IC50 (3D Hepatocyte Spheroid): 9.99 µM | IC50 (HepG2): 91.2 µM

Cc1c(C)c2c(c(C)c1O)CCC(C)(COc1ccc(CC3SC(=O)NC3=O)cc1)O2 (centres unmarked) [Troglitazone]
sensitivity of HepatoMOS-based versus spheroid-based DILI assay (HepatoMOS (PHHs)): better sensitivities

CC(=O)Nc1ccc(O)cc1 [acetaminophen]
tissue in mouse liver MOSs versus control (mouse liver MOSs): smaller and contains many dead cells | tissue in human liver MOSs versus control (human liver MOSs): significant increase atypical tissue structures (arrows) and debris
